What was measured:
NCI-H358 (K-Ras G12C) = experiment: CellTiter-Glo cell viability assay, NCI-H358; format: cell-based, human; conditions: Homo sapiens, NCI-H358, 120 h, NCI-H358, 5-day treatment; class symbols; read-out: Additional H358 Cell Viability assay data (K-Ras G12C, IC50)
In short: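 Compounds dispensed directly onto seeded K-Ras mutant cells; plates read on day 5 after ~30 min equilibration to room temperature, by CellTiter-Glo luminescence. Signal normalized as (sample/mean DMSO)×100, then fitted to a four-parameter logistic curve.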

K-Ras G12C = K-Ras G12C (Homo sapiens (Human), UniProt P01116+P62937, G12C); experiment: Ras-Raf (BRAF RBD) disruption / FRET / MOA assay, KRAS G12C; format: biochemical; conditions: KRAS G12C; Ras-Raf disruption/FRET/MOA assay; read-out: IC50* KRAS G12C FRET data
In short: (§1)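 A 10-point, 3-fold dilution series topping at 30 μM final was incubated 3 h at 25° C with the Ras/cyclophilin A/BRAF RBD mixture.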

K-Ras G13C = K-Ras G13C (Homo sapiens (Human), UniProt P01116+P62937, G13C); experiment: Ras-Raf (BRAF RBD) disruption / FRET / MOA assay, KRAS G13C; format: biochemical; conditions: KRAS G13C; Ras-Raf disruption/FRET/MOA assay; read-out: IC50* KRAS G13C FRET data
In short: as §1

KRAS G12S = KRAS G12S (Homo sapiens (Human), UniProt P01116+P62937, G12S); experiment: Ras-Raf (BRAF RBD) disruption / FRET / MOA assay, KRAS G12S; format: biochemical; conditions: Ras-Raf disruption/FRET/MOA assay; class symbols; read-out: KRAS G12S FRET data IC50
In short: as §1

KRAS G12D = KRAS G12D (Homo sapiens (Human), UniProt P01116+P62937, G12D); experiment: Ras-Raf (BRAF RBD) disruption / FRET / MOA assay, KRAS G12D; format: biochemical; conditions: Ras-Raf disruption/FRET/MOA assay; class symbols; read-out: KRAS G12D FRET data IC50
In short: as §1

KRAS G12V = KRAS G12V (Homo sapiens (Human), UniProt P01116+P62937, G12V); experiment: Ras-Raf (BRAF RBD) disruption / FRET / MOA assay, KRAS G12V; format: biochemical; conditions: read-out: IC50* KRAS G12V FRET data
In short: as §1

KRAS WT = KRAS WT (Homo sapiens (Human), UniProt P01116+P62937); experiment: Ras-Raf (BRAF RBD) disruption / FRET / MOA assay, KRAS WT; format: biochemical; conditions: read-out: IC50* KRAS WT FRET data
In short: as §1

KRAS G13D = KRAS G13D (Homo sapiens (Human), UniProt P01116+P62937, G13D); experiment: Ras-Raf (BRAF RBD) disruption / FRET / MOA assay, KRAS G13D; format: biochemical; conditions: read-out: IC50* KRAS G13D FRET data
In short: as §1

KRAS Q61H = KRAS Q61H (Homo sapiens (Human), UniProt P01116+P62937, Q61H); experiment: Ras-Raf (BRAF RBD) disruption / FRET / MOA assay, KRAS Q61H; format: biochemical; conditions: Ras-Raf disruption/FRET/MOA assay; class symbols; read-out: KRAS Q61H FRET data IC50
In short: (§2)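 Compounds (30 μM top final, 10-point 3-fold dilutions) incubated 3 h at 25° C with nucleotide-loaded Ras, cyclophilin A and BRAF RBD. Detection with 10 nM anti-His Eu-W1024 and 50 nM anti-GST allophycocyanin over another 1.5 h. Lowered TR-FRET ratio relative to DMSO wells gives IC50.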

NRAS G12C = NRAS G12C (Homo sapiens (Human), UniProt P01111+P62937, G12C); experiment: Ras-Raf (BRAF RBD) disruption / FRET / MOA assay, NRAS G12C; format: biochemical; conditions: read-out: IC50* NRAS G12C FRET data
In short: as §1

NRAS Q61R = NRAS Q61R (Homo sapiens (Human), UniProt P01111+P62937, Q61R); experiment: Ras-Raf (BRAF RBD) disruption / FRET / MOA assay, NRAS Q61R; format: biochemical; conditions: NRAS Q61R; Ras-Raf disruption/FRET/MOA assay; read-out: IC50* NRAS Q61R FRET data
In short: as §2

NRAS Q61K = NRAS Q61K (Homo sapiens (Human), UniProt P01111+P62937, Q61K); experiment: Ras-Raf (BRAF RBD) disruption / FRET / MOA assay, NRAS Q61K; format: biochemical; conditions: NRAS Q61K; Ras-Raf disruption/FRET/MOA assay; read-out: IC50* NRAS Q61K FRET data
In short: as §2

Sequence of KRAS G12D (P01116-2 other isoform, or with tags, fused parts or gaps G12D): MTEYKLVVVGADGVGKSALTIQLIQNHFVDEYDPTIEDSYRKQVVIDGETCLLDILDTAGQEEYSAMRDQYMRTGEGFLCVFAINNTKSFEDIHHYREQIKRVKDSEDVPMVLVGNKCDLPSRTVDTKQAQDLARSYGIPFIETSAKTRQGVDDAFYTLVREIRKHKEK
Sequence of KRAS G12D (P62937 whole entry): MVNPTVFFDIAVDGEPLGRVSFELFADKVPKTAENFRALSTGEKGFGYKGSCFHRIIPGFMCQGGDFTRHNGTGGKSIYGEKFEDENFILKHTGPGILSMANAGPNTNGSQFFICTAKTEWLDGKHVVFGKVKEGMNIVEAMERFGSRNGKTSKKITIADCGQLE
Sequence of NRAS Q61R (P01111 whole entry Q61R): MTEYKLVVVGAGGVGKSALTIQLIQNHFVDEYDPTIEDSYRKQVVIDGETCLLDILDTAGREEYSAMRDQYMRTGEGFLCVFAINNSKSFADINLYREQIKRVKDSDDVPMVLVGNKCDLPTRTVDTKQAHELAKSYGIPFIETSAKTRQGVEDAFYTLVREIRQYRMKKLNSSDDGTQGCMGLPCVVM
Sequence of NRAS Q61R (P62937 whole entry): as the sequence (P62937 whole entry) above
Sequence of K-Ras G13C (P01116-2 other isoform, or with tags, fused parts or gaps G13C): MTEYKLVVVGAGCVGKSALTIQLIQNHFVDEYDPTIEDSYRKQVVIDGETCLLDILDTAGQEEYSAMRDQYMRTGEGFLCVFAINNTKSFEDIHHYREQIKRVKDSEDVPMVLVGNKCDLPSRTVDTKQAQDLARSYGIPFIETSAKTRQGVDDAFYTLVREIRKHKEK
Sequence of K-Ras G13C (P62937 whole entry): as the sequence (P62937 whole entry) above
Sequence of K-Ras G12C (P01116-2 other isoform, or with tags, fused parts or gaps G12C): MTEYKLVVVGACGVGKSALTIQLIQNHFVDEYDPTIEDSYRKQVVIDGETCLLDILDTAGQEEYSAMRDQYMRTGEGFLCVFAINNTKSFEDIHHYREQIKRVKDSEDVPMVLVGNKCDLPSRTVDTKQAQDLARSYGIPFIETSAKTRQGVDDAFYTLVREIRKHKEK
Sequence of K-Ras G12C (P62937 whole entry): as the sequence (P62937 whole entry) above
Sequence of KRAS G12S (P01116-2 other isoform, or with tags, fused parts or gaps G12S): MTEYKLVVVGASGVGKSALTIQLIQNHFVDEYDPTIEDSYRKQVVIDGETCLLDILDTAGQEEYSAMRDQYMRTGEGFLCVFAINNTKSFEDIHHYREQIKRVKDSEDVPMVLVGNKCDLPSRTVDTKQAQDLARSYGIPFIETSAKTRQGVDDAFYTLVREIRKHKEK
Sequence of KRAS G12S (P62937 whole entry): as the sequence (P62937 whole entry) above
Sequence of KRAS WT (P01116-2 other isoform, or with tags, fused parts or gaps): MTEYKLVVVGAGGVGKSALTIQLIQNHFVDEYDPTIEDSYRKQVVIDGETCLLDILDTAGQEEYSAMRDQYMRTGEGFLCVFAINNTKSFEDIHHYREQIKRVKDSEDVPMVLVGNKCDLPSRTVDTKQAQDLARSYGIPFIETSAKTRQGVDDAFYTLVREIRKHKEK
Sequence of KRAS WT (P62937 whole entry): as the sequence (P62937 whole entry) above
Sequence of NRAS Q61K (P01111 whole entry Q61K): as the sequence (P01111 whole entry Q61R) above, with R61K counted along it
Sequence of NRAS Q61K (P62937 whole entry): as the sequence (P62937 whole entry) above
Sequence of NRAS G12C (P01111 whole entry G12C): as the sequence (P01111 whole entry Q61R) above, with G12C, R61Q counted along it
Sequence of NRAS G12C (P62937 whole entry): as the sequence (P62937 whole entry) above
Sequence of KRAS G12V (P01116-2 other isoform, or with tags, fused parts or gaps G12V): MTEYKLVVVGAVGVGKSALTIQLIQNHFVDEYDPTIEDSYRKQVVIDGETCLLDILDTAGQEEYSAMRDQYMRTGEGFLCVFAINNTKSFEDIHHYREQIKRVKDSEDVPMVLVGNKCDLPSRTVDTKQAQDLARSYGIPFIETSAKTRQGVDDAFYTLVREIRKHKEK
Sequence of KRAS G12V (P62937 whole entry): as the sequence (P62937 whole entry) above
Sequence of KRAS Q61H (P01116-2 other isoform, or with tags, fused parts or gaps Q61H): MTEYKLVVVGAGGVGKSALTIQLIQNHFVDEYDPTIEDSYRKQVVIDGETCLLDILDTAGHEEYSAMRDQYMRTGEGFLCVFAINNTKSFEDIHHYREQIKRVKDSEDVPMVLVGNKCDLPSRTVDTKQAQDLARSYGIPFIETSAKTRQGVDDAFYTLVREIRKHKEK
Sequence of KRAS Q61H (P62937 whole entry): as the sequence (P62937 whole entry) above
Sequence of KRAS G13D (P01116-2 other isoform, or with tags, fused parts or gaps G13D): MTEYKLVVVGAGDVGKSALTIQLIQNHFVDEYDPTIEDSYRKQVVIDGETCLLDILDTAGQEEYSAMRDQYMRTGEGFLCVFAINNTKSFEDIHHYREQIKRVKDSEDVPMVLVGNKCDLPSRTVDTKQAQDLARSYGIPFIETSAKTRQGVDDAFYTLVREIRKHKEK
Sequence of KRAS G13D (P62937 whole entry): as the sequence (P62937 whole entry) above

SMILES	IC50 (NCI-H358 (K-Ras G12C)) [µM]	IC50 (K-Ras G12C) [µM]	IC50 (K-Ras G13C) [µM]	IC50 (KRAS G12S) [µM]	IC50 (KRAS G12D) [µM]	IC50 (KRAS G12V) [µM]	IC50 (KRAS WT) [µM]	IC50 (KRAS G13D) [µM]	IC50 (KRAS Q61H) [µM]	IC50 (NRAS G12C) [µM]	IC50 (NRAS Q61R) [µM]	IC50 (NRAS Q61K) [µM]
CCn1c(-c2cccnc2[C@H](C)OC)c2c3cc(ccc31)C1=CCCN(C1)C[C@H](NC(=O)[C@H](C(C)C)N(C)C(=O)C1(F)CCN(C(=O)C#CC(C)(C)N(C)C)CC1)C(=O)N1CCC[C@H](N1)C(=O)OCC(C)(C)C2 (atropisomer, axis not shown) [Example A591]	< 0.01	< 0.01	0.01 to 0.1	0.1 to 1	1 to 10	0.1 to 1	0.1 to 1	0.1 to 1	0.1 to 1	< 0.01	0.1 to 1	1 to 10
C=CC(=O)N1CC[C@]2(C1)OCN([C@H](C(=O)N[C@H]1Cc3cccc(n3)-c3ccc4c(c3)c(c(-c3cccnc3[C@H](C)OC)n4CC)CC(C)(C)COC(=O)[C@@H]3CCCN(N3)C1=O)C(C)C)C2=O (atropisomer, axis not shown) [Example A652]	0.1 to 1	0.1 to 1	0.1 to 1	1 to 10	> 10	1 to 10	1 to 10	1 to 10	1 to 10	0.1 to 1	1 to 10	1 to 10
CO[C@@H](C)c1ncccc1-c1c2c3cc(ccc3n1CC(F)(F)F)-c1cccc(c1)C[C@H](NC(=O)[C@@H](COC1CN(C(=O)C#CC3(C)OCCO3)C1)C(C)C)C(=O)N1CCC[C@H](N1)C(=O)OCC(C)(C)C2 (atropisomer, axis not shown) [Example A703]	0.01 to 0.1	0.01 to 0.1	1 to 10	> 10	> 10	1 to 10	1 to 10	> 10	1 to 10	0.01 to 0.1	> 10	> 10
C=CS(=O)(=O)N1CCC2(CCN([C@H](C(=O)N[C@H]3Cc4cc(O)cc(c4)-c4ccc5c(c4)c(c(-c4cccnc4[C@H](C)OC)n5CC)CC(C)(C)COC(=O)[C@@H]4CCCN(N4)C3=O)C(C)C)C2=O)CC1 (atropisomer, axis not shown) [Example A299]	< 0.01	< 0.01	< 0.01	0.01 to 0.1	1 to 10	0.1 to 1	0.01 to 0.1	0.1 to 1	< 0.01	< 0.01	0.1 to 1	0.01 to 0.1
CO[C@@H](C)c1ncccc1-c1c2c3cc(ccc3n1CC(F)(F)F)N1CCO[C@@H](C[C@H](NC(=O)[C@H](C(C)C)N3CC[C@]4(CCN(C(=O)C#CC(C)(C)N(C)C)C4)C3=O)C(=O)N3CCC[C@H](N3)C(=O)OCC(C)(C)C2)C1 (atropisomer, axis not shown) [Example A642]	< 0.01	< 0.01	0.1 to 1	1 to 10	> 10	1 to 10	1 to 10	1 to 10	1 to 10	< 0.01	> 10	> 10
CO[C@@H](C)c1ncccc1-c1c2c3cc(ccc3n1CC(F)(F)F)-c1nc(co1)C[C@H](NC(=O)[C@H](C(C)C)N(C)C(=O)C1(F)CCN(C(=O)C#CC(C)(C)N(C)C)CC1)C(=O)N1CCC[C@H](N1)C(=O)OCC(C)(C)C2 (atropisomer, axis not shown) [Example A578]	< 0.01	< 0.01	0.01 to 0.1	0.1 to 1	0.1 to 1	0.1 to 1	0.1 to 1	0.1 to 1	0.01 to 0.1	< 0.01	0.1 to 1	0.1 to 1
C=CC(=O)N1CC[C@H](C(=O)N(C)[C@H](C(=O)N[C@H]2C[C@H]3CN(CCO3)c3ccc4c(c3)c(c(-c3cccnc3COC)n4CC)CC(C)(C)COC(=O)[C@@H]3CCCN(N3)C2=O)C(C)C)C1 [Example A240]	> 1	1 to 10	> 10	> 10	> 10	> 10	> 10	> 10	> 10	1 to 10	> 10	> 10
C=CC(=O)N1CC[C@H](C(=O)N(C)[C@H](C(=O)N[C@H]2Cc3cc(cc(C(F)F)c3)-c3ccc4c(c3)c(c(-c3cc(N5CCN(C)CC5)cnc3[C@H](C)OC)n4CC(F)(F)F)CC(C)(C)COC(=O)[C@@H]3CCCN(N3)C2=O)C(C)C)C1 (atropisomer, axis not shown) [Example A357]	< 0.01	0.1 to 1	0.1 to 1	0.1 to 1	1 to 10	0.1 to 1	0.1 to 1	0.1 to 1	0.1 to 1	0.1 to 1	0.1 to 1	1 to 10
CCn1c(-c2cccnc2[C@H](C)OC)c2c3cc(ccc31)N1CCO[C@@H](C[C@H](NC(=O)[C@H](C(C)C)N(C)C(=O)C3(F)CCN(C(=O)C#CC(C)(C)N(C)C)CC3)C(=O)N3CCC[C@H](N3)C(=O)OCC(C)(C)C2)C1 (atropisomer, axis not shown) [Example A647, 1-(4-(dimethylamino)-4-methylpent-2-ynoyl)-N-((2S)-1-(((2^2S,6^3S,4S)-1^1-ethyl-1^2-(2-((S)-1-methoxyethyl)pyridin-3-yl)-10,10-dimethyl-5,7-dioxo-6^1,6^2,6^3,6^4,6^5,6^6-hexahydro-1^1H-8-oxa-2(4,2)-morpholina-1(5,3)-indola-6(1,3)-pyridazinacycloundecaphane-4-yl)amino)-3-methyl-1-oxobutan-2-yl)-4-fluoro-N-methylpiperidine-4-carboxamide]	< 0.01	< 0.01	0.1 to 1	1 to 10	1 to 10	1 to 10	0.1 to 1	1 to 10	1 to 10	< 0.01	1 to 10	1 to 10
CCn1c(-c2cccnc2[C@H](C)OC)c2c3cc(ccc31)-c1cccc(c1)C[C@H](NC(=O)[C@H](C(C)C)N1CC[C@]3(CCN(C(=O)C#C[C@@]4(N(C)C)CCOC4)C3)C1=O)C(=O)N1CCC[C@H](N1)C(=O)OCC(C)(C)C2 (atropisomer, axis not shown) [Example A560]	< 0.01	0.01 to 0.1	0.1 to 1	0.1 to 1	1 to 10	1 to 10	1 to 10	1 to 10	0.1 to 1	0.01 to 0.1	1 to 10	1 to 10
CCn1c(-c2cccnc2[C@H](C)OC)c2c3cc(ccc31)-c1cc(F)cc(c1)C[C@H](NC(=O)[C@@H](COC1CN(C(=O)C#CC(C)(C)N(C)C)C1)C(C)C)C(=O)N1CCC[C@H](N1)C(=O)OCC(C)(C)C2 (atropisomer, axis not shown) [Example A403]	< 0.01	< 0.01	1 to 10	> 10	> 10	1 to 10	> 10	> 10	1 to 10	0.01 to 0.1	> 10	> 10

From patent US11566007B2, “Ras inhibitors” (Revolution Medicines, Inc., priority 2019, dated 2023)
